From patent US20230128402A1 (The Trustees of Princeton University, priority 2020, published 2023)

How the values were obtained:
[1] = target: T1, mALDH1a3 (Mus musculus, UniProt Q9JHW9); assay: Aldh1a3 enzyme inhibition assay, recombinant mALDH1a3; type: biochemical; settings: resorufin fluorescence, 20° C.
T1 construct: made in house; host or cells: E. coli BL21-DE3, pET-Aldh1a3
T1 sequence (Q9JHW9 1-512): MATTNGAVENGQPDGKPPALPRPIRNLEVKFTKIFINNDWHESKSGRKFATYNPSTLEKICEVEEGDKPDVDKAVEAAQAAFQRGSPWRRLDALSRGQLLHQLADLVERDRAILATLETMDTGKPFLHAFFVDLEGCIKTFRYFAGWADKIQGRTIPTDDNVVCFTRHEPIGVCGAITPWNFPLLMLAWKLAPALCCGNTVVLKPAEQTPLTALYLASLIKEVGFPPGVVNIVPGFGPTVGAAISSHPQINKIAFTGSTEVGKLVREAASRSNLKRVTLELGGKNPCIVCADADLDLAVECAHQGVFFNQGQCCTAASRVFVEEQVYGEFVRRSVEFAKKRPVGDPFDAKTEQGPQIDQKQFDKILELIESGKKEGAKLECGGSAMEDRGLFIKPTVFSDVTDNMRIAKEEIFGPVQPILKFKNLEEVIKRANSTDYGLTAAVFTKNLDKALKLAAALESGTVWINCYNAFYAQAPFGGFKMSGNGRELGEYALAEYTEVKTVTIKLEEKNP
Description: (§1) Recombinant enzyme and inhibitor added immediately before assay. Reaction rate measured by resorufin fluorescence.

[2] = target: T2, ALDH1a3 (Homo sapiens, UniProt P47895); assay: Aldh1a3 enzyme inhibition assay, recombinant hALDH1a3; type: biochemical; set-up: made in house; host or cells: E. coli BL21-DE3, pET-Aldh1a3; settings: resorufin fluorescence, 20° C.
T2 sequence (P47895 1-512): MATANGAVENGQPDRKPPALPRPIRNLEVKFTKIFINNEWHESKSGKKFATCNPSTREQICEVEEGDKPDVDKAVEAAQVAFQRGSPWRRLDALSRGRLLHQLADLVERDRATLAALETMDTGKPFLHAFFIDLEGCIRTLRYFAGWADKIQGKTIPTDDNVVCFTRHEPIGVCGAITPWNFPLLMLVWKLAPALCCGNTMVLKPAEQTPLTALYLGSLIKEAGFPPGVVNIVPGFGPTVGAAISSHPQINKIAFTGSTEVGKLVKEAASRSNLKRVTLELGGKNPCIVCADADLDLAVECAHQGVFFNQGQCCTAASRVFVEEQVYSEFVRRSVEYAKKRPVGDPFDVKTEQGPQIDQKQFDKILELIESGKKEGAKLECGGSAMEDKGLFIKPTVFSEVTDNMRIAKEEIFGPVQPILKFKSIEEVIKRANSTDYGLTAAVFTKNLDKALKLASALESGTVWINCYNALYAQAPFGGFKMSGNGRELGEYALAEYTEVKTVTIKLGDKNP
Description: as §1

Row | SMILES | IC50 [1] | IC50 [2]
1 | Cc1cc(C(=O)Nc2ccc3c(c2)CCC(=O)N3)ccn1 [Compound 24] | > 5000 nM | > 5000 nM
2 | O=C1CCc2cc(Nc3nccc4ccccc34)ccc2N1 [Compound 22, 6-(1-isoquinolylamino)-3,4-dihydro-1H-quinolin-2-one] | > 5000 nM | > 5000 nM
3 | CC(C)c1cnccc1C(=O)Nc1cc2c(cc1F)NC(=O)CC2 [Compound 6] | 1000 to 5000 nM | 1000 to 5000 nM
4 | CCc1cnccc1C(=O)Nc1cc2c(cc1C#N)NC(=O)CC2 [Compound 84, N-(7-cyano-2-oxo-3,4-dihydro-1H-quinolin-6-yl)-3-ethyl-pyridine-4-carboxamide] | 250 to 1000 nM | 250 to 1000 nM
5 | CCc1cnccc1NC(=O)c1ccc2c(c1)CCC(=O)N2 [Compound 26, N-(3-ethyl-4-pyridyl)-2-oxo-3,4-dihydro-1H-quinoline-6-carboxamide] | > 5000 nM | > 5000 nM
6 | CCc1cnccc1C(=O)Nc1cc2c(cc1F)NC(=O)CC2(C)C [Compound 40] | 250 to 1000 nM | 1000 to 5000 nM
7 | CC1(C)Cc2cc(Nc3nc4ccccc4[nH]3)ccc2NC1=O [Compound 98, 6-(1H-benzimidazol-2-ylamino)-3,3-dimethyl-1,4-dihydroquinolin-2-one] | 1000 to 5000 nM | 1000 to 5000 nM
8 | CCc1cnccc1C(=O)N(C)c1ccc2c(c1)CCC(=O)N2 [Compound 27, 3-ethyl-N-methyl-N-(2-oxo-3,4-dihydro-1H-quinolin-6-yl)pyridine-4-carboxamide] | > 5000 nM | > 5000 nM
9 | CC(C)=Cc1cnc(C)cc1C(=O)Nc1ccc2c(c1)CC(C)(C)C(=O)N2 [Compound 69] | > 5000 nM | > 5000 nM
10 | CCc1cnccc1C(=O)Nc1ccc2c(c1)NC(=O)CC2 [Compound 32] | > 5000 nM | > 5000 nM
11 | CCc1c(C(=O)Nc2ccc3c(c2)CCC(=O)N3)cc[nH]c1=O [Compound 50, 3-ethyl-2-oxo-N-(2-oxo-3,4-dihydro-1H-quinolin-6-yl)-1H-pyridine-4-carboxamide] | 1000 to 5000 nM | 100 to 250 nM
12 | CCc1cnc(C)cc1C(=O)Nc1ccc2c(c1)CCC(=O)N2 [Compound 56, 5-ethyl-2-methyl-N-(2-oxo-3,4-dihydro-1H-quinolin-6-yl)pyridine-4-carboxamide] | 250 to 1000 nM | 100 to 250 nM
13 | CC1(C)Cc2cc(Nc3cnc4ccccc4n3)ccc2NC1=O [Compound 92, 3,3-dimethyl-6-(quinoxalin-2-ylamino)-1,4-dihydroquinolin-2-one] | 100 to 250 nM | 100 to 250 nM
14 | CCc1cnccc1/C=C/c1cc2c(cc1F)NC(=O)CC2 [Compound 45, 6-[(E)-2-(3-ethyl-4-pyridyl)vinyl]-7-fluoro-3,4-dihydro-1H-quinolin-2-one] | 250 to 1000 nM | 250 to 1000 nM
15 | CC1(C)Cc2cc(Nc3cc(Cl)c(Cl)cn3)ccc2NC1=O [Compound 125, 6-[(4,5-dichloro-2-pyridyl)amino]-3,3-dimethyl-1,4-dihydroquinolin-2-one] | > 5000 nM | 250 to 1000 nM
16 | CCCc1cnccc1C(=O)Nc1ccc2c(c1)CCC(=O)N2 [Compound 60, N-(2-oxo-3,4-dihydro-1H-quinolin-6-yl)-3-propyl-pyridine-4-carboxamide] | 250 to 1000 nM | 100 to 250 nM
17 | N#Cc1ccc2nc(Nc3ccc4c(c3)CCC(=O)N4)ccc2c1 [Compound 88, 2-[(2-oxo-3,4-dihydro-1H-quinolin-6-yl)amino]quinoline-6-carbonitrile] | > 5000 nM | > 5000 nM
